Data: patent publication US9451771B2, “Compositions and methods to attract the brown marmorated stink bug (BMSB), Halyomorpha halys” (United States of America as Represented by the Secretary of …, priority 2012, dated 2016)

Tested on: brown marmorated stink bug (BMSB), Halyomorpha halys
Assay: Synergy trials for attraction of BMSB to #10 and MDT, black pyramid traps
Assay type: in vivo
Description: Synergy trials for attraction of BMSB to #10 and methyl (2E,4E,6Z)-decatrieonate (MDT): From 6 Apr. to 23 Oct. […] Va. (3 replicates), we tested the following four treatments for attraction of BMSB adults and nymphs, using a full-sized black pyramid trap adapted for BMSB (see above): (1) #10 lure (Table 4) replaced every 2 weeks; (2) #3 lure, MDT, (Sterling International, Spokane, Wash.; ˜119 mg loading; see text below), replaced every 4 weeks; (3) #14 lure, in which #10 and MDT lures hung together in trap, replaced as above for each lure; and (4) no lure (control).
The MDT lure obtained from Sterling International was extracted with pentane which yielded 420 mg of crude product. According to TLC analysis on silica using dichloromethane, the extracted material contained MTD (Rf 0.46) plus unknown chemical(s) with Rf 0.20. This material was flash chromatographed on silica with hexane:dichloromethane, 1:1, to obtain 119 mg of pure MDT. The identity of MDT was re-confirmed by comparison of the gas chromatographic retention time and mass-spectrum with those of a standard prepared according to Khrimian (Khrimian, A., Tetrahedron, 61: 3651-3657 (2005)).
Traps were checked and collected twice-weekly in Beltsville, and weekly in Arden, as described previously, and the treatments were re-randomized at each collection. Field trapping results were summed by approximately two-week intervals, and the totals for each replicate analyzed by ANOVA and additionally with Tukey's HSD multiple comparisons at α=0.05 if the overall 1-way ANOVA F-test was significant at α=0.05. In addition, a two-way ANOVA with interaction was tested to determine if the combined lure provoked a different level of attractiveness (a significant interaction) than would be expected from a combination of the attractiveness of each separate lure type. Such an interaction, with numbers exceeding the expected attraction for the combined lure, represents a true synergy of the two lures.

[1] = Arden, WV 2012, 15May-23 Oct, TOTAL
[2] = Arden, WV 2012, Aug2-13, 11-day total
[3] = Arden, WV 2012, Aug13-27, 14-day total
[4] = Arden, WV 2012, Aug27-Sep10, 14-day total
[5] = Arden, WV 2012, July2-17, 15-day total
[6] = Arden, WV 2012, July17-Aug2, 16-day total
[7] = Arden, WV 2012, June4-19, 15-day total
[8] = Arden, WV 2012, June19-July2, 13-day total
[9] = Arden, WV 2012, May 16-23, 7-day total
[10] = Arden, WV 2012, May23-Jun4, 14-day total
[11] = Arden, WV 2012, Oct9-23, 14-day total
[12] = Arden, WV 2012, Sep10-24, 14-day total
[13] = Arden, WV 2012, Sep24-Oct9, 17-day total
[14] = Arden, WV, 3 replicates, 20 May through 23 Oct. 2012
[15] = Arden, WV, 20 May through 23 Oct. 2012
[16] = Beltsville, MD 2012, 4-22 May, 18-day total, 4 traps/trtmt
[17] = Beltsville, MD 2012, 5-19 June, 14-day total, 4 traps/trtmt
[18] = Beltsville, MD 2012, 5-23Oct, 18-day total, 4 traps/trtmt
[19] = Beltsville, MD 2012, 6-20 April, 14-day total, 4 traps/trtmt
[20] = Beltsville, MD 2012, 6APR-23OCT, Total
[21] = Beltsville, MD 2012, 6APR-23OCT, Total, 4 traps/trtmt
[22] = Beltsville, MD 2012, 7-21 Sept, 14-day total, 4 traps/trtmt
[23] = Beltsville, MD 2012, 10-24 Aug, 14-day total, 4 traps/trtmt
[24] = Beltsville, MD 2012, 13-27 July
[25] = Beltsville, MD 2012, 13-27 July, 14-day total, 4 traps/trtmt
[26] = Beltsville, MD 2012, 19-29 June
[27] = Beltsville, MD 2012, 19-29 June, 10-day total, 4 traps/trtmt
[28] = Beltsville, MD 2012, 20 April-4 May, 14-day total, 4 traps/trtmt
[29] = Beltsville, MD 2012, 21Sep-5 Oct
[30] = Beltsville, MD 2012, 21Sep-5 Oct, 14-day total, 4 traps/trtmt
[31] = Beltsville, MD 2012, 24Aug-7Sept
[32] = Beltsville, MD 2012, 24Aug-7Sept, 14-day total, 4 traps/trtmt
[33] = Beltsville, MD 2012, 27 July-10 Aug
[34] = Beltsville, MD 2012, 27 July-10 Aug, 14-day total, 4 traps/trtmt
[35] = Beltsville, MD 2012, 29 June-13 July
[36] = Beltsville, MD 2012, 29 June-13 July, 14-day total, 4 traps/trtmt
[37] = Beltsville, MD, 4 replicates, 6 April through 23 Oct. 2012
[38] = Beltsville, MD, 6 April through 23 Oct. 2012

## CCC\C=C/C=C/C=C/C(=O)OC [Lure #3, Methyl (2E,4E,6Z)-decatrienoate]
[1]
  adults captured: 999
  adults captured (% of total): 17.9%
  nymphs captured: 386
  nymphs captured (% of total): 18.4%
Arden, WV 2012, Aug2-13
  adults captured (% of total): 10.40%
  nymphs captured (% of total): 9.5%
[2]
  adults captured: 7
  nymphs captured: 38
Arden, WV 2012, Aug13-27
  adults captured (% of total): 3.10%
  nymphs captured (% of total): 10.0%
[3]
  adults captured: 4
  nymphs captured: 51
Arden, WV 2012, Aug27-Sep10
  adults captured (% of total): 1.60%
  nymphs captured (% of total): 42.8%
[4]
  adults captured: 3
  nymphs captured: 68
Arden, WV 2012, July2-17
  adults captured (% of total): 0%
  nymphs captured (% of total): 5.0%
[5]
  adults captured: 0
  nymphs captured: 8
Arden, WV 2012, July17-Aug2
  adults captured (% of total): 0%
  nymphs captured (% of total): 22.2%
[6]
  adults captured: 0
  nymphs captured: 8
Arden, WV 2012, June4-19
  adults captured (% of total): 0%
[7]
  adults captured: 0
  nymphs captured: 0
Arden, WV 2012, June19-July2
  adults captured (% of total): 0%
  nymphs captured (% of total): 0%
[8]
  adults captured: 0
  nymphs captured: 0
Arden, WV 2012, May 16-23
  adults captured (% of total): 0%
[9]
  adults captured: 0
  nymphs captured: 0
Arden, WV 2012, May23-Jun4
  adults captured (% of total): 0%
[10]
  adults captured: 0
  nymphs captured: 0
Arden, WV 2012, Oct9-23
  adults captured (% of total): 28.90%
  nymphs captured (% of total): 60.5%
[11]
  adults captured: 120
  nymphs captured: 20
Arden, WV 2012, Sep10-24
  adults captured (% of total): 12.70%
  nymphs captured (% of total): 23.9%
[12]
  adults captured: 333
  nymphs captured: 135
Arden, WV 2012, Sep24-Oct9
  adults captured (% of total): 25.20%
  nymphs captured (% of total): 25.7%
[13]
  adults captured: 532
  nymphs captured: 58
[14]
  Season-long total captures of BMSB adults: 999 b
  Season-long total captures of BMSB nymphs: 386 b
[15]
  Season-long captures of BMSB adults, share of TOTAL: 17.9%
  Season-long captures of BMSB nymphs, share of TOTAL: 18.4%
Beltsville, MD 2012, 4-22 May
  adults captured (% of total): 2.10%
[16]
  adults captured: 2
  nymphs captured: 0
Beltsville, MD 2012, 5-19 June
  adults captured (% of total): 4.20%
  nymphs captured (% of total): 25.10%
[17]
  adults captured: 6
  nymphs captured: 63
Beltsville, MD 2012, 5-23Oct
  adults captured (% of total): 17.50%
  nymphs captured (% of total): 35.70%
[18]
  adults captured: 6
  nymphs captured: 5
Beltsville, MD 2012, 6-20 April
  adults captured (% of total): 10.20%
[19]
  adults captured: 6
  nymphs captured: 0
[20]
  adults captured (% of total): 10.40%
  nymphs captured (% of total): 28.30%
[21]
  adults captured: 1203
  nymphs captured: 1823
Beltsville, MD 2012, 7-21 Sept
  adults captured (% of total): 20.30%
  nymphs captured (% of total): 30.00%
[22]
  adults captured: 314
  nymphs captured: 36
Beltsville, MD 2012, 10-24 Aug
  adults captured (% of total): 4.60%
  nymphs captured (% of total): 14.80%
[23]
  adults captured: 7
  nymphs captured: 212
[24]
  adults captured (% of total): 0.00%
  nymphs captured (% of total): 20.30%
[25]
  adults captured: 0
  nymphs captured: 13
[26]
  adults captured (% of total): 0.00%
  nymphs captured (% of total): 1.30%
[27]
  adults captured: 0
  nymphs captured: 6
Beltsville, MD 2012, 20 April-4 May
  adults captured (% of total): 21.90%
[28]
  adults captured: 7
  nymphs captured: 0
[29]
  adults captured (% of total): 27.90%
  nymphs captured (% of total): 40.50%
[30]
  adults captured: 440
  nymphs captured: 17
Beltsville, MD 2012, 22 May-5 June
  adults captured (% of total): 2.90%
Beltsville, MD 2012, 22May-5June
  nymphs captured (% of total): 38.90%
Beltsville, MD 2012, 22 May-5 June, 14-day total, 4 traps/trtmt
  adults captured: 3
Beltsville, MD 2012, 22May-5June, 14-day total, 4 traps/trtmt
  nymphs captured: 7
[31]
  adults captured (% of total): 22.20%
  nymphs captured (% of total): 41.80%
[32]
  adults captured: 393
  nymphs captured: 1018
[33]
  adults captured (% of total): 6.10%
  nymphs captured (% of total): 30.80%
[34]
  adults captured: 14
  nymphs captured: 406
[35]
  adults captured (% of total): 8.60%
  nymphs captured (% of total): 14.50%
[36]
  adults captured: 5
  nymphs captured: 40
[37]
  Season-long total captures of BMSB adults: 1203 b
  Season-long total captures of BMSB nymphs: 1823 b
[38]
  Season-long captures of BMSB adults, share of TOTAL: 20.4%
  Season-long captures of BMSB nymphs, share of TOTAL: 28.3%
